# Test results published in US9079913B2, “Spiro-oxindole MDM2 antagonists” (The Regents of the University of Michigan, priority 2009, dated 2015).
# “And” between values parts separate entries of the source, which are not always exact repeats. Equal values may be shown once.
# What was measured:
# [1] = Pharmacokinetic studies in Beagle dogs; type: in vivo
# [2] = In vitro microsomal stability, human; type: in vitro ADME; details: for Microsomal stability, % remaining: Human microsomes
# SJSA-1 xenograft tumors = details: mice bearing SJSA-1 xenograft, oral 200-300 mg/kg daily or twice a day, 2 weeks; cited from earlier work
# [3] = Pharmacokinetic studies in rats; type: in vivo, rat; details: for Plasma Concentration: male rat
# Description: Pharmacokinetic studies on MDM2 inhibitors were carried out in rat. For comparison, the MDM2 inhibitor, AT-219, was also studied.
# [4] = Metabolites in rat plasma; type: in vivo; details: rats, MI-219 i.v. 5 mg/kg
# Description: Plasma was harvested by centrifuging the blood at 13000 rpm for 5 min at 4° C. and stored frozen at −80±10° C. until analysis.
# Based on the similarities and difference among their mass spectra, the possible fragmentation pathways of protonated MI-219 and several lead compounds were proposed. Three characteristic product ions were selected to generate 240 ion channels for MRM screening by using Metabolite ID software (Applied Biosystems), including 40 common biotransformation processes. To search all the metabolites, two other scan modes, EMS full scan and precursor scan were also conducted. Only the components detected in the sample and absent in all the control samples were regarded as possible metabolites. To identify the possible metabolites, both the sample and controls were injected on the LC-MS for EPI and MS^3 scans to obtain their MS^2 and MS^3 spectra.
# [5] = rats, IV 5 mg/kg, animals and MEAN
# [6] = rats, IV 5 mg/kg, animals and MEAN, mean
# [7] = rats, PO 25 mg/kg, animals and MEAN
substance,measurement,setting,value
MI-219,oral bioavailability in dogs (in words),[1],orally bioavailable
same,AUC,[1]; 10 mg/kg oral dosing,7947 ± 2396 ng·h/mL
same,MRT,[1]; IV 2.0 mg/kg,1.22 h and 1.81 h and 1.87 h
same,Plasma Concentration,"[1]; IV 2.0 mg/kg, 0.117 h, dogs and Mean",4069 ng/mL and 7668 ng/mL
same,Plasma Concentration,"[1]; IV 2.0 mg/kg, 0.117 h, dogs and Mean, mean",5868 ng/mL
same,Plasma Concentration,"[1]; IV 2.0 mg/kg, 0.20 h",2623 ng/mL and 2272 ng/mL and 3918 ng/mL
same,Plasma Concentration,"[1]; IV 2.0 mg/kg, 0.20 h, mean",2938 ng/mL
same,Plasma Concentration,"[1]; IV 2.0 mg/kg, 0.5 h",1888 ng/mL and 1192 ng/mL and 1795 ng/mL
same,Plasma Concentration,"[1]; IV 2.0 mg/kg, 0.5 h, mean",1625 ng/mL
same,Plasma Concentration,"[1]; IV 2.0 mg/kg, 1.0 h",853 ng/mL and 704 ng/mL and 1044 ng/mL
same,Plasma Concentration,"[1]; IV 2.0 mg/kg, 1.0 h, mean",867 ng/mL
same,Plasma Concentration,"[1]; IV 2.0 mg/kg, 3.0 h",331 ng/mL and 402 ng/mL
same,Plasma Concentration,"[1]; IV 2.0 mg/kg, 3.0 h, mean",367 ng/mL
same,Plasma Concentration,"[1]; IV 2.0 mg/kg, 4.0 h",256 ng/mL and 188 ng/mL and 248 ng/mL
same,Plasma Concentration,"[1]; IV 2.0 mg/kg, 4.0 h, mean",231 ng/mL
same,Plasma Concentration,"[1]; IV 2.0 mg/kg, 6.0 h",114.3 ng/mL and 81.1 ng/mL and 119 ng/mL
same,Plasma Concentration,"[1]; IV 2.0 mg/kg, 6.0 h, mean",105 ng/mL
same,Plasma Concentration,"[1]; IV 2.0 mg/kg, 8.0 h",52.2 ng/mL and 39.7 ng/mL and 57.8 ng/mL
same,Plasma Concentration,"[1]; IV 2.0 mg/kg, 8.0 h, mean",49.9 ng/mL
same,Plasma Concentration,"[1]; IV 2.0 mg/kg, 12 h",17.9 ng/mL and 9.75 ng/mL and 19.4 ng/mL
same,Plasma Concentration,"[1]; IV 2.0 mg/kg, 12 h, mean",15.7 ng/mL
same,T½,"[1]; IV 2.0 mg/kg, dogs and Mean",4.32 h and 3.00 h and 4.36 h
same,T½,"[1]; IV 2.0 mg/kg, dogs and Mean, mean",3.90 h
same,MRT,"[1]; IV 2.0 mg/kg, mean",1.63 h
same,AUC(0-t),[1]; PO 10 mg/kg,9665 ng·h/mL and 5210 ng·h/mL and 8967 ng·h/mL
same,AUC(0-∞),[1]; PO 10 mg/kg,9681 ng·h/mL and 5226 ng·h/mL and 8985 ng·h/mL
same,Cmax,[1]; PO 10 mg/kg,3001 ng/mL and 3560 ng/mL and 2119 ng/mL and 3323 ng/mL
same,F,[1]; PO 10 mg/kg,26.1% and 26.8% and 28.6%
same,MRT,[1]; PO 10 mg/kg,3.09 h and 2.71 h and 3.33 h
same,Tmax,[1]; PO 10 mg/kg,0.83 h and 1.0 h and 0.5 h
same,Plasma Concentration,"[1]; PO 10 mg/kg, 0.5 h, dogs and Mean",2101 ng/mL and 1842 ng/mL and 3323 ng/mL
same,Plasma Concentration,"[1]; PO 10 mg/kg, 0.5 h, dogs and Mean, mean",2422 ng/mL
same,Plasma Concentration,"[1]; PO 10 mg/kg, 1 h",3560 ng/mL and 2119 ng/mL and 2999 ng/mL
same,Plasma Concentration,"[1]; PO 10 mg/kg, 1 h, mean",2893 ng/mL
same,Plasma Concentration,"[1]; PO 10 mg/kg, 4 h",483 ng/mL and 603 ng/mL and 312 ng/mL and 535 ng/mL
same,Plasma Concentration,"[1]; PO 10 mg/kg, 24 h",4.05 ng/mL and 3.78 ng/mL and 4.48 ng/mL
same,Plasma Concentration,"[1]; PO 10 mg/kg, 24 h, mean",4.10 ng/mL
same,T½,"[1]; PO 10 mg/kg, dogs and Mean",2.77 h and 3.03 h and 2.81 h
same,T½,"[1]; PO 10 mg/kg, dogs and Mean, mean",2.87 h
same,AUC(0-t),"[1]; PO 10 mg/kg, mean",7947 ng·h/mL
same,AUC(0-∞),"[1]; PO 10 mg/kg, mean",7964 ng·h/mL
same,MRT,"[1]; PO 10 mg/kg, mean",3.04 h
same,"Microsomal stability, % remaining",[2]; 0 min,100.00%
same,"Microsomal stability, % remaining",[2]; 5 min,78.76%
same,"Microsomal stability, % remaining",[2]; 10 min,58.19%
same,"Microsomal stability, % remaining",[2]; 15 min,46.46%
same,"Microsomal stability, % remaining",[2]; 30 min,26.46%
same,"Microsomal stability, % remaining",[2]; 45 min,20.88%
same,"Microsomal stability, % remaining",[2]; 60 min,11.86%
same,microsomal stability (in words),[2]; human liver microsomes,metabolized fairly rapidly
same,tumor growth inhibition (in words),SJSA-1 xenograft tumors,effective tumor growth inhibition
same,Plasma Concentration,"[3]; IV 5 mg/kg, 0.083 hr, animals M1, M2 and Mean",5873.30 ng/mL and 5229.30 ng/mL
same,Plasma Concentration,"[3]; IV 5 mg/kg, 0.083 hr, animals M1, M2 and Mean, mean",5551.30 ng/mL
same,Plasma Concentration,"[3]; IV 5 mg/kg, 0.5 hr, animals and Mean",693.45 ng/mL and 548.39 ng/mL
same,Plasma Concentration,"[3]; IV 5 mg/kg, 0.5 hr, animals and Mean, mean",620.92 ng/mL
same,Plasma Concentration,"[3]; IV 5 mg/kg, 1 hr, animals and Mean",330.71 ng/mL and 344.66 ng/mL
same,Plasma Concentration,"[3]; IV 5 mg/kg, 1 hr, animals and Mean, mean",337.68 ng/mL
same,Plasma Concentration,"[3]; IV 5 mg/kg, 2 hr, animals and Mean",164.88 ng/mL and 134.91 ng/mL
same,Plasma Concentration,"[3]; IV 5 mg/kg, 2 hr, animals and Mean, mean",149.90 ng/mL
same,Plasma Concentration,"[3]; IV 5 mg/kg, 4 hr, animals and Mean",49.27 ng/mL and 56.50 ng/mL
same,Plasma Concentration,"[3]; IV 5 mg/kg, 4 hr, animals and Mean, mean",52.88 ng/mL
same,Plasma Concentration,"[3]; IV 5 mg/kg, 6 hr, animals and Mean",24.18 ng/mL and 32.66 ng/mL
same,Plasma Concentration,"[3]; IV 5 mg/kg, 6 hr, animals and Mean, mean",28.42 ng/mL
same,Plasma Concentration,"[3]; IV 5 mg/kg, 8 hr, animals and Mean",11.05 ng/mL and 18.98 ng/mL
same,Plasma Concentration,"[3]; IV 5 mg/kg, 8 hr, animals and Mean, mean",15.02 ng/mL
same,Plasma Concentration,"[3]; IV 5 mg/kg, 24 hr, animals and Mean",1.86 ng/mL and 1.28 ng/mL
same,Plasma Concentration,"[3]; IV 5 mg/kg, 24 hr, animals and Mean, mean",1.57 ng/mL
same,Plasma Concentration,"[3]; PO 25 mg/kg, 0.083 hr, animals M6-M8 and Mean",1526.57 ng/mL and 1380.03 ng/mL and 1642.42 ng/mL
same,Plasma Concentration,"[3]; PO 25 mg/kg, 0.083 hr, animals M6-M8 and Mean, mean",1516.34 ng/mL
same,Plasma Concentration,"[3]; PO 25 mg/kg, 0.5 hr, animals and Mean",3332.19 ng/mL and 2500.25 ng/mL and 4278.56 ng/mL
same,Plasma Concentration,"[3]; PO 25 mg/kg, 0.5 hr, animals and Mean, mean",3370.33 ng/mL
same,Plasma Concentration,"[3]; PO 25 mg/kg, 1 hr, animals and Mean",3101.06 ng/mL and 2957.44 ng/mL and 1779.31 ng/mL
same,Plasma Concentration,"[3]; PO 25 mg/kg, 1 hr, animals and Mean, mean",2612.60 ng/mL
same,Plasma Concentration,"[3]; PO 25 mg/kg, 2 hr, animals and Mean",1064.21 ng/mL and 1534.41 ng/mL and 1342.18 ng/mL
same,Plasma Concentration,"[3]; PO 25 mg/kg, 2 hr, animals and Mean, mean",1313.60 ng/mL
same,Plasma Concentration,"[3]; PO 25 mg/kg, 4 hr, animals and Mean",296.644 ng/mL and 223.937 ng/mL and 407.415 ng/mL
same,Plasma Concentration,"[3]; PO 25 mg/kg, 4 hr, animals and Mean, mean",309.33 ng/mL
same,Plasma Concentration,"[3]; PO 25 mg/kg, 6 hr, animals and Mean",103.285 ng/mL and 90.8093 ng/mL and 131.398 ng/mL
same,Plasma Concentration,"[3]; PO 25 mg/kg, 6 hr, animals and Mean, mean",108.50 ng/mL
same,Plasma Concentration,"[3]; PO 25 mg/kg, 8 hr, animals and Mean",80.4445 ng/mL and 66.2777 ng/mL
same,Plasma Concentration,"[3]; PO 25 mg/kg, 8 hr, animals and Mean, mean",64.76 ng/mL
same,Plasma Concentration,"[3]; PO 25 mg/kg, 24 hr, animals and Mean",25.1348 ng/mL and 17.5136 ng/mL and 20.2154 ng/mL
same,Plasma Concentration,"[3]; PO 25 mg/kg, 24 hr, animals and Mean, mean",20.95 ng/mL
same,% F,"[3]; male rats, oral dose 25 mg/kg",65%
same,AUC(0-t),"[3]; male rats, oral dose 25 mg/kg",7677 ± 328
same,Cmax,"[3]; male rats, oral dose 25 mg/kg",3751 ± 1068 ng/mL
same,T1/2,"[3]; male rats, oral dose 25 mg/kg",1.4 ± 0.1 h
same,oral bioavailability / oral pharmacokinetics in rats (in words),"[3]; oral dosing, rats",orally bioavailable
same,AUC(0-t),[3]; [5],2318.88 µg·h/L and 2379.54 µg·h/L
same,AUC(0-∞),[3]; [5],2319.77 ng·h/mL and 2379.62 ng·h/mL
same,CLz,[3]; [5],36 mL/min/kg and 35 mL/min/kg
same,Cmax,[3]; [5],5229.30 ng/mL and 5873.30 ng/mL
same,MRT(0-∞),[3]; [5],1.51 h and 1.26 h
same,T1/2,[3]; [5],2.54 h and 1.86 h
same,Vz,[3]; [5],7.90 L/kg and 5.62 L/kg
same,AUC(0-t),[3]; [6],2349.21 µg·h/L
same,AUC(0-∞),[3]; [6],2349.69 ng·h/mL
same,CLz,[3]; [6],35.5 mL/min/kg
same,Cmax,[3]; [6],5551.30 ng/mL
same,MRT(0-∞),[3]; [6],1.38 h
same,T1/2,[3]; [6],2.20 h
same,Vz,[3]; [6],6.76 L/kg
same,F,"[3]; rats, PO 25 mg/kg vs IV 5 mg/kg, animals and MEAN",65.45±2.77% and 62.81% and 65.22% and 68.34% and 65.45%
same,AUC(0-t),[3]; [7],7378.78 µg·h/L and 7623.45 µg·h/L and 8028.71 µg·h/L
same,AUC(0-∞),[3]; [7],7689.94 ± 325.86 ng·h/mL and 7378.81 ng·h/mL and 7662.25 ng·h/mL and 8028.76 ng·h/mL and 7689.94 ng·h/mL
same,Cmax,[3]; [7],3332.19 ng/mL and 2957.44 ng/mL and 4965.7 ng/mL and 3751.78 ng/mL
same,MRT(0-∞),[3]; [7],2.64 h and 2.67 h and 2.62 h
same,T1/2,[3]; [7],1.36 h and 1.54 h and 1.40 h and 1.43 h
same,AUC(0-t),"[3]; rats, PO 25 mg/kg, animals and MEAN, mean",7676.98 µg·h/L
same,elimination rate from rat plasma (in words),[4],similar
